Assay results taken from patent US9296687B2, “Modulators of HSP70/DnaK function and methods of use thereof” (The Trustees of the University of Pennsylvania, priority 2008, dated 2016).

Experiments:
MTT cell viability assay = assay type: cell-based, human; details: human; 20 μM, all tumor cell lines examined; read-out: loss of cell viability
Procedure: (§1) Cell viability assays were performed using an MTT (methyl thiazolyl tetrazolium) colorimetric assay (Roche Applied Science, Cat. No. 11 465 007 001), with the following modifications. Briefly, cells (1×10^4) were plated into 24 well-assay plates in 0.5 ml media and allowed to attach overnight. […] After the incubation period, 50 μl of the water-soluble MTT labeling reagent [3-[4,5-dimethylthiazol-2-yl]-2,5-diphenyl tetrazolium bromid] were added to the cells, and the cells were incubated for 4 h in a humidified chamber at 37° C. with 5% CO2. The metabolized insoluble formazan crystals were then solubilized using 0.5 ml of the Solubilization solution (10% SDS in 0.01M HCl) per well, and the resulting colored solutions were spectrophotometrically quantified at an absorbance of 570 nm.

tumor cell lines = test: MTT cell viability assay; assay type: cell-based, human
Procedure: as §1

p62/SQSTM1, LC3 = test: Autophagy markers in cultured cells (vacuoles, LC3-II, p62/SQSTM1, electron microscopy); assay type: cell-based, human
[1] = tested on: MCF7 human breast carcinoma cells; test: MTT assay, PES followed by 17-AAG; assay type: cell-based; details: 5 μM PES 1 h, then 17-AAG 47 h
Procedure: FIG. 17. PES impairs the proteasome system. (A) Cell-based 20S proteasome activity assay of H1299 or A875 human tumor cells treated with DMSO, 20 μM PES, 100 nM Velcade (proteasome inhibitor), 1 μM 17-AAG (HSP90 inhibitor), 5 μM CQ (lysosome inhibitor), or 20S proteasome inhibitor epigallocatechin gallate (EGCG). Each graphical representation indicates the mean±SD of at least three independent cultures relative to control (DMSO-treated) cells. (B) Cell extracts from SKBR3 human breast carcinoma cells, treated either with 20 μM PES or 1 μM 17-AAG for 24 h, were immunoprecipitated (IP) using anti-HSP70 or anti-HSP90 antibody. […] MTT assays of MCF7 human breast carcinoma cells pretreated with DMSO, or 5 μM PES for 1 h, followed by the addition of indicated amount of 17-AAG for 47 h. The results represent the mean±SD of at least three independent analysis of cultures relative to control (DMSO-treated) cells. […]
Cell viability assays were performed using an MTT (methyl thiazolyl tetrazolium) colorimetric assay (Roche Applied Science, Cat. No. 11 465 007 001), with the following modifications. […] The metabolized insoluble formazan crystals were then solubilized using 0.5 ml of the Solubilization solution (10% SDS in 0.01M HCl) per well, and the resulting colored solutions were spectrophotometrically quantified at an absorbance of 570 nm.

MiaPaCa2 cells = test: Pulse-chase of newly synthesized proteins; assay type: cell-based, human; details: 20 μM, 3 h chase
Procedure: FIG. 13. Cycloheximide Reduces PES-Induced Cytoplasmic Vacuolization. (A) Representative phase-contrast images of indicated tumor cell lines pretreated with DMSO or 1 μg/ml of cycloheximide (CHX) for 1 h, followed by the addition of 20 μM PES for 23 h. (B) The molecular chaperone HSP70 has been implicated in promoting proper folding of nascent polypeptides. […] Briefly, MiaPaCa2 cells were incubated in methionine/cysteine starvation medium for 30 min before adding [^35S]methionine/cysteine and DMSO or [^35S]methionine/cysteine and 20 μM PES, as indicated, to pulse for 1 h. Following the pulse, cells were immediately chased by complete medium for 0, 0.5, or 3 h, either in the presence of DMSO or 20 μM PES, as indicated. Cells were harvested at indicated time points, lysed in 1% NP40-containing buffer, and fractionated into detergent-soluble and detergent-insoluble preparations.
The cells were seeded at ˜50% confluency in 10 ml of DMEM/10% FBS/1× Pen-Strep using 100 mm dish. Next day, the cells were washed extensively in PBS and starved in “methionine/cysteine-free DMEM” (Invitrogen SKU#21013-024) with 5% dialyzed FBS and 1× Pen/Strep for 30 min. Either [^35S] Methionine/Cysteine (500 μCi) and DMSO or [^35S] Methionine/Cysteine (500 μCi) and 20 μM PES were added to the cells for 1 h. The cells were washed extensively to remove [^35S] […]

NS(=O)(=O)C#Cc1ccccc1 [PES, 2-Phenylethynesulfonamide]
cytotoxicity at 20 μM (MTT cell viability assay): > 50% | IC50 (tumor cell lines; Homo sapiens, various tumor cell lines, read-out: half maximal concentration to exert cytotoxic effect (IC50)): 4 to 10 µM | cell viability, dose response (tumor cell lines; all tumor cell lines examined): dose-dependent loss of cell viability | LC3-II level (p62/SQSTM1, LC3; 20 μM): higher levels of LC3-II | autophagosomes and autophagolysosomes by electron microscopy (p62/SQSTM1, LC3; 20 μM, 7 or 24 h): rapid and substantial increase in multiple double-membrane autophagosomes and single-membrane autophagolysosomes | intracytoplasmic vacuoles (p62/SQSTM1, LC3; 24 h): progressive accumulation of intracytoplasmic vacuoles | p62/SQSTM1 oligomers in soluble and detergent-insoluble fractions (p62/SQSTM1, LC3; 24 h, PES 20 μM, Velcade 100 nM, CQ 50 μM, 17-AAG 15 nM): higher molecular weight forms of p62/SQSTM1 in both the soluble and detergent-insoluble fractions | p62/SQSTM1 accumulation and oligomerization (p62/SQSTM1, LC3; H1299 cells, increasing concentrations, 24 h): notable increase in p62/SQSTM1 accumulation and oligomerization | p62 oligomerization and LC3-II accumulation (p62/SQSTM1, LC3; IMR90 cells, 24 h): only a modest degree of p62 oligomerization and LC3-II accumulation | interaction between LC3 and p62/SQSTM1 (p62/SQSTM1, LC3; IP-WB, MiaPaCa2, A875): enhanced the interaction | accumulation and oligomerization of p62/SQSTM1 (p62/SQSTM1, LC3; western blot): promotes an accumulation and oligomerization of p62/SQSTM1 in a time- and dose-dependent manner | cell killing by 17-AAG [1]: sensitizes cells to cell killing by 17-AAG | newly-synthesized proteins in the detergent-insoluble fraction (MiaPaCa2 cells): increase in the newly-synthesized proteins in the detergent-insoluble fraction
